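Cultured in 96-well plates, cells were exposed to test compound for 48 hours across five concentrations. GI50: concentration for 50% inhibition of growth.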 Calls of active or inactive are those of the source. No stated cut-off is given here; in the data, active = GI50 up to about 1.1 µM and inactive = higher.
Experiments:
Assay in all cases: NCI anticancer screen, dose series, 48 h
HCT-116 = test system: HCT-116
M14 = test system: M14
UACC-257 = test system: UACC-257
OVCAR-3 = test system: OVCAR-3
NCI-H23 = test system: NCI-H23
PC-3 = test system: PC-3
786-0 = test system: 786-0
KM12 = test system: KM12
RPMI-8226 = test system: RPMI-8226
LOX IMVI = test system: LOX IMVI
A549 = test system: A549
U-251 = test system: U-251
SN12C = test system: SN12C
K562 = test system: K562
MDA-N = test system: MDA-N
T47D = test system: T47D
EKVX = test system: EKVX
HOP-92 = test system: HOP-92
HT-29 = test system: HT-29
NCI-H460 = test system: NCI-H460
UACC-62 = test system: UACC-62
RXF 393 = test system: RXF 393
SF-268 = test system: SF-268
SK-MEL-5 = test system: SK-MEL-5
Hs-578T = test system: Hs-578T
NCI-H522 = test system: NCI-H522
TK-10 = test system: TK-10
CCRF-CEM = test system: CCRF-CEM
NCI-H226 = test system: NCI-H226
ACHN = test system: ACHN
MCF7 = test system: MCF7
NCI/ADR-RES = test system: NCI/ADR-RES
SNB-19 = test system: SNB-19
HOP-62 = test system: HOP-62
A498 = test system: A498
UO-31 = test system: UO-31
IGROV-1 = test system: IGROV-1
MDA-MB-231 = test system: MDA-MB-231
OVCAR-5 = test system: OVCAR-5
DU-145 = test system: DU-145
BT-549 = test system: BT-549
SF-539 = test system: SF-539
SK-MEL-2 = test system: SK-MEL-2
SK-MEL-28 = test system: SK-MEL-28
HCC 2998 = test system: HCC 2998
OVCAR-4 = test system: OVCAR-4
CAKI-1 = test system: CAKI-1
Malme-3M = test system: Malme-3M
COLO 205 = test system: COLO 205
MDA-MB-435 = test system: MDA-MB-435
OVCAR-8 = test system: OVCAR-8
SF-295 = test system: SF-295
HCT-15 = test system: HCT-15
SW-620 = test system: SW-620
SK-OV-3 = test system: SK-OV-3
MOLT-4 = test system: MOLT-4
SNB-75 = test system: SNB-75
HL-60 = test system: HL-60
SR = test system: SR

For `Cc1[nH]c(C)c(CN(C)C)c1CN(C)C`, the GI50 (HCT-116) was > 100 µM (inactive), the GI50 (M14) was > 100 µM (inactive) and the GI50 (UACC-257) was > 100 µM (inactive). For the same molecule, the GI50 (OVCAR-3) was > 100 µM (inactive), the GI50 (NCI-H23) was > 100 µM (inactive) and the GI50 (PC-3) was > 100 µM (inactive). For the same molecule, the GI50 (786-0) was > 100 µM (inactive), the GI50 (KM12) was > 100 µM (inactive) and the GI50 (RPMI-8226) was > 100 µM (inactive). For the same molecule, the GI50 (LOX IMVI) was > 100 µM (inactive), the GI50 (A549) was > 100 µM (inactive) and the GI50 (U-251) was > 100 µM (inactive). The GI50 (SN12C) was > 100 µM (inactive), the GI50 (K562) was > 100 µM (inactive) and the GI50 (MDA-N) was > 100 µM (inactive). For the same molecule, the GI50 (T47D) was > 100 µM (inactive), the GI50 (EKVX) was > 100 µM (inactive) and the GI50 (HOP-92) was > 100 µM (inactive). The GI50 (HT-29) was > 100 µM (inactive), the GI50 (NCI-H460) was > 100 µM (inactive) and the GI50 (UACC-62) was > 100 µM (inactive). The GI50 (RXF 393) was > 100 µM (inactive), the GI50 (SF-268) was > 100 µM (inactive) and the GI50 (SK-MEL-5) was > 100 µM (inactive). For the same molecule, the GI50 (Hs-578T) was > 100 µM (inactive), the GI50 (NCI-H522) was > 100 µM (inactive) and the GI50 (TK-10) was > 100 µM (inactive). The GI50 (CCRF-CEM) was > 100 µM (inactive), the GI50 (NCI-H226) was > 100 µM (inactive) and the GI50 (ACHN) was > 100 µM (inactive). For the same molecule, the GI50 (MCF7) was > 100 µM (inactive), the GI50 (NCI/ADR-RES) was > 100 µM (inactive) and the GI50 (SNB-19) was > 100 µM (inactive). The GI50 (HOP-62) was > 100 µM (inactive), the GI50 (A498) was > 100 µM (inactive) and the GI50 (UO-31) was > 100 µM (inactive). The GI50 (IGROV-1) was > 100 µM (inactive), the GI50 (MDA-MB-231) was > 100 µM (inactive) and the GI50 (OVCAR-5) was > 100 µM (inactive). For the same molecule, the GI50 (DU-145) was > 100 µM (inactive), the GI50 (BT-549) was > 100 µM (inactive) and the GI50 (SF-539) was > 100 µM (inactive). The GI50 (SK-MEL-2) was > 100 µM (inactive), the GI50 (SK-MEL-28) was > 100 µM (inactive) and the GI50 (HCC 2998) was > 100 µM (inactive). The GI50 (OVCAR-4) was > 100 µM (inactive), the GI50 (CAKI-1) was > 100 µM (inactive) and the GI50 (Malme-3M) was > 100 µM (inactive). For the same molecule, the GI50 (COLO 205) was > 100 µM (inactive), the GI50 (MDA-MB-435) was > 100 µM (inactive) and the GI50 (OVCAR-8) was > 100 µM (inactive). For the same molecule, the GI50 (SF-295) was > 100 µM (inactive), the GI50 (HCT-15) was greater than 100 µM and the GI50 (SW-620) was > 100 µM (inactive). The GI50 (SK-OV-3) was > 100 µM (inactive).
With `COC(=O)C1CCOC(C)N1C(=O)OC(C)(C)C` (stereo unspecified) the GI50 (HCT-116) was > 100 µM (inactive), the GI50 (M14) was > 100 µM (inactive) and the GI50 (UACC-257) was > 100 µM (inactive). For the same molecule, the GI50 (OVCAR-3) was > 100 µM (inactive), the GI50 (NCI-H23) was > 100 µM (inactive) and the GI50 (PC-3) was > 100 µM (inactive). The GI50 (786-0) was > 100 µM (inactive), the GI50 (KM12) was > 100 µM (inactive) and the GI50 (RPMI-8226) was > 100 µM (inactive). For the same molecule, the GI50 (LOX IMVI) was > 100 µM (inactive), the GI50 (A549) was > 100 µM (inactive) and the GI50 (U-251) was > 100 µM (inactive). For the same molecule, the GI50 (SN12C) was > 100 µM (inactive), the GI50 (K562) was > 100 µM (inactive) and the GI50 (MDA-N) was > 100 µM (inactive). The GI50 (T47D) was > 100 µM (inactive), the GI50 (EKVX) was > 100 µM (inactive) and the GI50 (MOLT-4) was > 100 µM (inactive). The GI50 (HT-29) was > 100 µM (inactive), the GI50 (NCI-H460) was > 100 µM (inactive) and the GI50 (UACC-62) was > 100 µM (inactive). For the same molecule, the GI50 (RXF 393) was > 100 µM (inactive), the GI50 (SF-268) was > 100 µM (inactive) and the GI50 (SK-MEL-5) was > 100 µM (inactive). The GI50 (Hs-578T) was > 100 µM (inactive), the GI50 (NCI-H522) was > 100 µM (inactive) and the GI50 (TK-10) was > 100 µM (inactive). For the same molecule, the GI50 (SNB-75) was > 100 µM (inactive), the GI50 (CCRF-CEM) was > 100 µM (inactive) and the GI50 (NCI-H226) was > 100 µM (inactive). The GI50 (ACHN) was > 100 µM (inactive), the GI50 (MCF7) was > 100 µM (inactive) and the GI50 (NCI/ADR-RES) was > 100 µM (inactive). The GI50 (HL-60) was > 100 µM (inactive), the GI50 (SNB-19) was > 100 µM (inactive) and the GI50 (HOP-62) was > 100 µM (inactive). The GI50 (UO-31) was > 100 µM (inactive), the GI50 (IGROV-1) was > 100 µM (inactive) and the GI50 (SR) was > 100 µM (inactive). For the same molecule, the GI50 (MDA-MB-231) was > 100 µM (inactive), the GI50 (OVCAR-5) was > 100 µM (inactive) and the GI50 (DU-145) was > 100 µM (inactive). For the same molecule, the GI50 (BT-549) was > 100 µM (inactive), the GI50 (SF-539) was > 100 µM (inactive) and the GI50 (SK-MEL-2) was > 100 µM (inactive). The GI50 (SK-MEL-28) was > 100 µM (inactive), the GI50 (HCC 2998) was > 100 µM (inactive) and the GI50 (OVCAR-4) was > 100 µM (inactive). For the same molecule, the GI50 (CAKI-1) was > 100 µM (inactive), the GI50 (Malme-3M) was > 100 µM (inactive) and the GI50 (COLO 205) was > 100 µM (inactive). For the same molecule, the GI50 (MDA-MB-435) was > 100 µM (inactive), the GI50 (OVCAR-8) was > 100 µM (inactive) and the GI50 (SF-295) was > 100 µM (inactive). The GI50 (HCT-15) was greater than 100 µM, the GI50 (SW-620) was > 100 µM (inactive) and the GI50 (SK-OV-3) was > 100 µM (inactive).
For `CSc1ccc(/C=C2\N=C(c3ccccc3)N(c3nc4cc(C)c(C)cc4s3)C2=O)cc1`, the GI50 (HCT-116) was 18.3 µM (inactive), the GI50 (M14) was 26.4 µM (inactive) and the GI50 (UACC-257) was 43.3 µM (inactive). The GI50 (OVCAR-3) was 22.8 µM (inactive), the GI50 (PC-3) was 22.4 µM (inactive) and the GI50 (786-0) was 21.9 µM (inactive). The GI50 (KM12) was 27.4 µM (inactive), the GI50 (RPMI-8226) was 52.1 µM (inactive) and the GI50 (LOX IMVI) was 19.8 µM (inactive). For the same molecule, the GI50 (A549) was 30.1 µM (inactive), the GI50 (U-251) was 19.2 µM (inactive) and the GI50 (SN12C) was 27 µM (inactive). For the same molecule, the GI50 (K562) was 43.4 µM (inactive), the GI50 (MDA-N) was 13.6 µM (inactive) and the GI50 (T47D) was 44.8 µM (inactive). The GI50 (EKVX) was 24.9 µM (inactive), the GI50 (MOLT-4) was 61.9 µM (inactive) and the GI50 (HOP-92) was 13.5 µM (inactive). For the same molecule, the GI50 (HT-29) was 22.2 µM (inactive), the GI50 (NCI-H460) was 36.3 µM (inactive) and the GI50 (UACC-62) was 28.1 µM (inactive). The GI50 (RXF 393) was 25 µM (inactive), the GI50 (SF-268) was 34.8 µM (inactive) and the GI50 (SK-MEL-5) was 21.4 µM (inactive). The GI50 (Hs-578T) was 28.4 µM (inactive), the GI50 (TK-10) was 94.4 µM (inactive) and the GI50 (SNB-75) was 28.8 µM (inactive). The GI50 (CCRF-CEM) was 9.35 µM (inactive), the GI50 (ACHN) was 24.9 µM (inactive) and the GI50 (MCF7) was 15.3 µM (inactive). The GI50 (NCI/ADR-RES) was 31.3 µM (inactive), the GI50 (HL-60) was 20.9 µM (inactive) and the GI50 (SNB-19) was 30.2 µM (inactive). The GI50 (HOP-62) was 23.6 µM (inactive), the GI50 (UO-31) was 28.9 µM (inactive) and the GI50 (IGROV-1) was 15.8 µM (inactive). For the same molecule, the GI50 (SR) was 25 µM (inactive), the GI50 (MDA-MB-231) was 24.6 µM (inactive) and the GI50 (OVCAR-5) was 26.2 µM (inactive). For the same molecule, the GI50 (DU-145) was 49.7 µM (inactive), the GI50 (BT-549) was 28.2 µM (inactive) and the GI50 (SF-539) was 21.3 µM (inactive). The GI50 (SK-MEL-2) was 16 µM (inactive), the GI50 (SK-MEL-28) was 49.7 µM (inactive) and the GI50 (HCC 2998) was 32.1 µM (inactive). For the same molecule, the GI50 (OVCAR-4) was 26.5 µM (inactive), the GI50 (CAKI-1) was 53 µM (inactive) and the GI50 (COLO 205) was 35.2 µM (inactive). The GI50 (MDA-MB-435) was 12.9 µM (inactive), the GI50 (OVCAR-8) was 20.3 µM (inactive) and the GI50 (SF-295) was 34.1 µM (inactive). The GI50 (HCT-15) was 40.7 µM, the GI50 (SW-620) was 17.9 µM (inactive) and the GI50 (SK-OV-3) was 46.5 µM (inactive).

— ChEMBL document CHEMBL1201862, “PubChem BioAssay data set” (2004)
